Assay results reported in article PMC8050233, “Biased cytochrome P450-mediated metabolism via small-molecule ligands binding P450 oxidoreductase” (Nature Communications, 2021).
Where two headings read alike, the source gives them in different places.

Columns and labels:
human POR [1] = molecular target: T1, human POR (Homo sapiens, UniProt A0A9L9PY49); assay: biochemical; set-up: POR proteoliposome reduction of cytochrome c, MTT (absorbance) or resazurin (fluorescence), normalized to DMSO control; conditions: Liposomes=Liposomes, electron acceptor as given
T1 construct: full-length wild type in pET22b, expressed in E. coli BL21(DE3); bacterial membranes reconstituted in DLPC/DLPG liposomes without further purification, or used as microsomes
T1 sequence (A0A9L9PY49 1-680): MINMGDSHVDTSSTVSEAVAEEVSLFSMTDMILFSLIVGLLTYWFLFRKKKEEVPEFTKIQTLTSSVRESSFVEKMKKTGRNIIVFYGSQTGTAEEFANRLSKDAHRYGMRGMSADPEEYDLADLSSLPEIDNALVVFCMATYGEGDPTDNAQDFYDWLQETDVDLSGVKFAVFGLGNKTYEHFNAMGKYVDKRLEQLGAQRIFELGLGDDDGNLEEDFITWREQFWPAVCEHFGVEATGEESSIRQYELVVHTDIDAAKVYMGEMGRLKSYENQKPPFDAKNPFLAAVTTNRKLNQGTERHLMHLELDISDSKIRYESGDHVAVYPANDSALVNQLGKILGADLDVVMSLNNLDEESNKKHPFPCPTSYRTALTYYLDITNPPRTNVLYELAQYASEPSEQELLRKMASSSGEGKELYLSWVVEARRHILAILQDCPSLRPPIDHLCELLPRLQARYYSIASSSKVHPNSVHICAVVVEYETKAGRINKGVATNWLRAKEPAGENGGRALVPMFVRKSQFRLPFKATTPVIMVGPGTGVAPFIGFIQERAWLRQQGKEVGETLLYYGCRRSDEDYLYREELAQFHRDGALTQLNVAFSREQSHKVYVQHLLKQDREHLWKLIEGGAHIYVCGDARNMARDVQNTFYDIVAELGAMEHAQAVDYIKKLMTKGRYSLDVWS
Experimental: (§1) Using Cytc, MTT or RS as electron acceptors the change in absorbance (550 nm for Cytc and 610 nm for MTT) or emission (570 nm excitation, 585 nm emission for RS) was monitored as a function of time. Cytc and RS concentrations were both close to KM of the given electron acceptor, while MTT and NADPH were in excess amounts. Concentrations were 40 μM Cytc, 10 μM RS, 500 μM MTT and 100 μM NADPH unless otherwise stated. POR activity was extracted from the slope of the linear region of each trace. Michaelis–Menten kinetics and IC50 curves were performed under identical conditions using relevant substrate and ligand concentrations. All measurements were repeated at least three times and subsequently normalized to DMSO control measurements. […] Fluorescence intensities of resorufin in the presence of rifampicin were corrected according to a linear calibration curve (see Supplementary Fig. 7). Given that point-mutations in human POR can lead to altered specificity towards CYP isoforms[4],[19], we tested whether small-molecule ligands can bias the specificity of human POR to reduce diverse electron acceptors. […] (MTT)[32] (Fig. 2A). Each of the assays relies on spectral changes of the electron acceptor upon reduction by POR and thus directly reports on POR activity towards reducing the specific redox partner (see Supplementary Methods for details). Being comparative these assays exclude artefacts that may originate from potential FMN loss. […] POR plays an omnipotent role as an electron donor to microsomal CYPs in all eukaryotes and serves as a key metabolic hub in plants as well as humans. To test whether the effect of small-molecule ligand binding to POR is an omnipotent phenomenon underlying the regulation of POR in organisms from different kingdoms, we performed binding assays based on intrinsic fluorescence quenching and dose-response experiments on POR2b from the crop plant Sorghum bicolor (SbPOR2b) in proteoliposomes (Fig. 3A, B, Supplementary Fig. 6 and Supplementary Table 3).

SbPOR2b [2] = molecular target: T2, SbPOR2b (Sorghum bicolor, UniProt C5YJG8); assay: resazurin reduction, fluorescence, Hill fit; type: biochemical
T2 construct: gene CPR; full-length, expressed in E. coli NiCo21(DE3) from pET52b, purified on 2',5'-ADP Sepharose and Q-sepharose, in DLPC/DLPG proteoliposomes; mutant in lipid nanodiscs
Source text: resazurin reduction, fluorescence, Hill fit on SbPOR2b | activity decrease in Cytc reduction and increase in RS reduction

in vitro = conditions: human, nci-h295r cells
Source text: We tested the efficiency of the three ligands to elicit a physiological response on steroidogenic CYP activities in cells (Fig. 5A, see Supplementary Methods, Supplementary Fig. 14 and Supplementary Table 4 for all data and number of biological replicates). The 3 tested ligands are not known to interact directly with CYP17, CYP19 or CYP21, albeit rifampicin and [compound left out] are known to interact with liver CYPs like CYP2B6[27] and CYP3A4[28]. Using a human adrenocortical cell line (NCI-H295R) we tested the effect of ligands on CYP17A1 and CYP21A2[59],[60] activities at 10 and 100 μM concentrations (Fig. 5A). Using radiolabeled substrates, we were able to quantify the steroid hormone production of CYP17A1 and CYP21A2 and its remodeling by POR ligands (see Supplementary Methods for details). […]. Rifampicin caused no significant effect on CYP17A1 activity, but reduced CYP21A2 activity at 100 μM (73 ± 4% of control; see Fig. 5A and Supplementary Fig. 14). […]. […]. […] (91 ± 12% of control). Specific inhibition of CY Fig. 5 Biased metabolism: small-molecule ligands bias steroidogenic CYP-activities in human cells and microsomes. A A human adrenocortical cell line (NCI-H295R) was used to assess the effect of small-molecule ligands on steroidogenic CYP17A1 and CYP21A2 hydroxylase activity, and CYP17A1 lyase activity, using radiolabeled substrates (see Supplementary Methods and Supplementary Table 4). Cell viability was assessed based on MTT reduction. […]. The cells display increased MTT reduction indicating increased reductase activity. No significant effects on CYP17A1 activities are observed. [compound left out] causes a significance increase in CYP17A1 lyase and less significant towards 17-OHase and 21A2 activities, while MTT reduction decreases slightly. [compound left out] causes inhibition of both CYP17A1 and CYP21A2 activities. B Abiraterone was used as a control inhibitor of CYP17A1 and CYP21A2 in H295R cells. C The effect of ligands on CYP19A1 activity was assessed on microsomes from a human choriocarcinoma cell line (JEG3). […]. A, C Error bars represent mean ± SD of 3–4 biological replicates normalized to DMSO controls with propagated error. See Supplementary Fig. 14 for raw data and Supplementary Table 4 for exact value of n for each experimental condition. Note, overlapping data points appear shaded. Level of significance is determined by one-way ANOVA and Tukey’s HSD test correcting for multiple comparisons (*p < 0.05; **p < 0.01; ***p < 0.005; see Supplementary Methods for details). Source data are provided as a Source Data file.

SbPOR2b [3] = molecular target: T2, SbPOR2b; assay: cytochrome c reduction, absorbance […] nm, Hill fit; type: biochemical
SbPOR2b [4] = molecular target: T2, SbPOR2b; assay: cytochrome c reduction, absorbance […] nm, Hill fit; type: biochemical; remark: listed apart in the source
human POR [5] = molecular target: T1, human POR; assay: cytochrome c reduction, absorbance […] nm; type: biochemical; conditions: read-out: % of control at 100 μM
SbPOR2b [6] = molecular target: T2, SbPOR2b; assay: biochemical; set-up: POR proteoliposome reduction of cytochrome c, MTT (absorbance) or resazurin (fluorescence), normalized to DMSO control; conditions: Liposomes=Liposomes, electron acceptor as given
Experimental: as §1

SbPOR2b [7] = molecular target: T2, SbPOR2b; assay: resazurin reduction, fluorescence, Hill fit; type: biochemical; remark: listed apart in the source
Source text: resazurin reduction, fluorescence, Hill fit on SbPOR2b | while marginally reducing the capacity in the RS assay

[8] = read-out: % of control remaining, Cytochrome C=Cytochrome C
[9] = read-out: % of control remaining, Cytochrome C=MTT
[10] = read-out: % of control remaining, Cytochrome C=Resazurin
[11] = Cytochrome C=Cytochrome C, read-out: % of control remaining
[12] = Cytochrome C=Resazurin, read-out: % of control remaining
[13] = Cytochrome C=MTT, read-out: % of control remaining
[14] = Assay=MTT cell viability, DMSO (v/v %)=1, read-out: % viability

T2 sequence (C5YJG8 whole entry): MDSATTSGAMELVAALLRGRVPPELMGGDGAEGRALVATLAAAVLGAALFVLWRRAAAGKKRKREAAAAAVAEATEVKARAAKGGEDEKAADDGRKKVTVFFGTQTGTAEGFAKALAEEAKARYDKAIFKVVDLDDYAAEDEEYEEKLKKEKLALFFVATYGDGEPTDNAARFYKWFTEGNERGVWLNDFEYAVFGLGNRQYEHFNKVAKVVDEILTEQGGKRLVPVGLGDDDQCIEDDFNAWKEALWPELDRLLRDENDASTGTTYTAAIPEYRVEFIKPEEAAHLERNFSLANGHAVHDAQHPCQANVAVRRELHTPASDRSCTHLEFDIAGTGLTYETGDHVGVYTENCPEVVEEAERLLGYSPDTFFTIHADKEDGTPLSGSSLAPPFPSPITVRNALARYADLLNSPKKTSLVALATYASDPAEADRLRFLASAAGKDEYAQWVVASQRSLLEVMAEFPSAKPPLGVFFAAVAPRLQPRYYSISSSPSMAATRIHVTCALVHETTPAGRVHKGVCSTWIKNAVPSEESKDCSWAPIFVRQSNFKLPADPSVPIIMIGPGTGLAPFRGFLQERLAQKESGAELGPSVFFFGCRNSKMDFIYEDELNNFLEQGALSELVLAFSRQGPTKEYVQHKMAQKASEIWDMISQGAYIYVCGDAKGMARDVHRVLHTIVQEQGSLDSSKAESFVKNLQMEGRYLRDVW

| SMILES | remaining activity at 10 µM (human POR [1]; [8]) | remaining activity at 100 µM (human POR [1]; [8]) | remaining activity at 10 µM (human POR [1]; [9]) | remaining activity at 10 µM (human POR [1]; [10]) | remaining activity at 100 µM (human POR [1]; [10]) | also measured |
| --- | --- | --- | --- | --- | --- | --- |
| CCCCc1oc2ccccc2c1C(=O)c1cc(I)c(OCCN(CC)CC)c(I)c1 [Amiodarone] | 95.6% | 106% | 85.1% | 102% | 102% |  |
| CN/C(=N\CCSCc1nc[nH]c1C)NC#N [Cimetidine] | 110% | 117% | 96.9% | 107% | 112% |  |
| CO[C@@]12[C@H](COC(N)=O)C3=C(C(=O)C(C)=C(N)C3=O)N1C[C@@H]1N[C@@H]12 [Mitomycin C] | 101% |  | 110% | 53.7% |  |  |
| CC(C)c1nc(CN(C)C(=O)N[C@H](C(=O)N[C@@H](Cc2ccccc2)C[C@H](O)[C@H](Cc2ccccc2)NC(=O)OCc2cncs2)C(C)C)cs1 [Ritonavir] | 108% | 118% | 88.4% | 96.9% | 95.9% |  |
| CC(=O)CC(c1ccccc1)c1c(O)c2ccccc2oc1=O (centres unmarked) [Warfarin] | 102% |  | 118% | 96.2% |  |  |
| O=P1(N(CCCl)CCCl)NCCCO1 (centres unmarked) [cyclophosphamide] |  |  |  |  |  | EC50 (SbPOR2b [2]): 159 ± 136 µM; viability at 10 µM (in vitro): 87.9%; viability at 100 µM (in vitro): 81.4%; IC50 (SbPOR2b [3]): 228 ± 208 µM |
| N#C[C@@H](O[C@@H]1O[C@H](CO)[C@@H](O)[C@H](O)[C@H]1O)c1ccc(O)cc1 [dhurrin] |  |  |  |  |  | EC50 (SbPOR2b [4]): 21 ± 12 µM; remaining activity at 100 µM (human POR [5]): 48 ± 9%; viability at 10 µM (in vitro): 93.6%; viability at 100 µM (in vitro): 88.1%; remaining activity at 10 µM (SbPOR2b [6]; [11]): 128%; remaining activity at 100 µM (SbPOR2b [6]; [11]): 156%; remaining activity at 100 µM (SbPOR2b [6]; [12]): 236%; remaining activity at 10 µM (human POR [1]; [13]): 87.7%; remaining activity at 100 µM (human POR [1]; [13]): 95.9%; remaining activity at 10 µM (human POR [1]; [12]): 105%; remaining activity at 100 µM (human POR [1]; [12]): 81.7% |
| CO[C@H]1/C=C/O[C@@]2(C)Oc3c(C)c(O)c4c(O)c(c(/C=N/N5CCN(C)CC5)c(O)c4c3C2=O)NC(=O)/C(C)=C\C=C\[C@H](C)[C@H](O)[C@@H](C)[C@@H](O)[C@@H](C)[C@H](OC(C)=O)[C@@H]1C [rifampicin] | 113% |  | 95.7% | 132% | 312% | EC50 (SbPOR2b [4]): 9 ± 8 µM; remaining activity at 100 µM (human POR [5]): 14 ± 5%; IC50 (SbPOR2b [7]): 18 ± 9 µM; viability at 10 µM (in vitro; [14]): 94%; viability at 100 µM (in vitro; [14]): 116%; remaining activity at 10 µM (SbPOR2b [6]; [8]): 140%; remaining activity at 100 µM (SbPOR2b [6]; [8]): 179%; remaining activity at 10 µM (SbPOR2b [6]; [10]): 102%; remaining activity at 100 µM (SbPOR2b [6]; [10]): 85%; remaining activity at 100 µM (human POR [1]; [9]): 122% |
